From PubChem BioAssay (NCI)
Values joined by “and” are separate entries in the source; they are usually repeats but may differ in a detail not shown here. Identical values can stand only once.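 Assay format: 96-well plates, 48-hour exposure. At the GI50, growth is halved. TGI is the concentration that stops growth completely.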

What was measured:
Experiment in all cases: NCI-60 cell line screen, 48 h
TK-10 renal = tested on: TK-10 renal
BT-549 breast = tested on: BT-549 breast
COLO 205 colon = tested on: COLO 205 colon
HCC-2998 colon = tested on: HCC-2998 colon
A549 NSCLC = tested on: A549 NSCLC
SF-539 CNS = tested on: SF-539 CNS
SW-620 colon = tested on: SW-620 colon
EKVX NSCLC = tested on: EKVX NSCLC
MALME-3M melanoma = tested on: MALME-3M melanoma
SF-268 CNS = tested on: SF-268 CNS

In the case of CCC(=C(c1ccc(OCCN(CC)CC)cc1)c1ccc(OCCN(CC)CC)cc1)c1ccc(Cl)cc1, the GI50 (TK-10 renal) is reported as 0.528 µM, the TGI (TK-10 renal) is reported as 1.1 µM and the GI50 (BT-549 breast) is reported as 0.647 µM. It also gave a TGI (BT-549 breast) of 1.45 µM, a GI50 (COLO 205 colon) of 0.631 µM and a TGI (COLO 205 colon) of 1.32 µM. It also gave a GI50 (HCC-2998 colon) of 0.532 µM, a TGI (HCC-2998 colon) of 1.02 µM and a GI50 (A549 NSCLC) of 0.638 µM. The TGI (A549 NSCLC) was 1.31 µM, the GI50 (SF-539 CNS) was 0.552 µM and the TGI (SF-539 CNS) was 1.04 µM. For the same compound, the GI50 (SW-620 colon) was 0.572 µM, the TGI (SW-620 colon) was 1.12 µM and the GI50 (EKVX NSCLC) was 0.641 µM. It also gave a TGI (EKVX NSCLC) of 1.46 µM, a GI50 (MALME-3M melanoma) of 0.567 µM and a TGI (MALME-3M melanoma) of 1.07 µM. The GI50 (SF-268 CNS) was 0.604 µM and the TGI (SF-268 CNS) was 1.23 µM.
COc1cccc2c(Nc3ccc(C(=O)NCCN4CCNCC4)cc3)cc(-c3ccccc3)nc12 was tested, and the GI50 (TK-10 renal) was 57 µM, the TGI (TK-10 renal) was > 100 µM and the GI50 (BT-549 breast) was 35.1 µM. For the same compound, the TGI (BT-549 breast) was > 100 µM, the GI50 (COLO 205 colon) was 19.7 µM and the TGI (COLO 205 colon) was 56.1 µM. For the same compound, the GI50 (HCC-2998 colon) was 49.2 µM, the TGI (HCC-2998 colon) was > 100 µM and the GI50 (A549 NSCLC) was > 100 µM. The TGI (A549 NSCLC) was > 100 µM, the GI50 (SF-539 CNS) was 22.9 µM and the TGI (SF-539 CNS) was 57 µM. The GI50 (SW-620 colon) was 29 µM, the TGI (SW-620 colon) was > 100 µM and the GI50 (EKVX NSCLC) was > 100 µM. For the same compound, the TGI (EKVX NSCLC) was > 100 µM, the GI50 (MALME-3M melanoma) was 21.6 µM and the TGI (MALME-3M melanoma) was 47.6 µM. For the same compound, the GI50 (SF-268 CNS) was 50.1 µM and the TGI (SF-268 CNS) was > 100 µM.
With Oc1ccc(/C=N/Nc2nnc(N/N=C/c3ccc(O)cc3O)c3ccccc23)c(O)c1 the GI50 (TK-10 renal) was 0.526 µM, the TGI (TK-10 renal) was 9.18 µM and the GI50 (BT-549 breast) was 0.399 µM. For the same compound, the TGI (BT-549 breast) was 0.581 µM and 1.94 µM, the GI50 (COLO 205 colon) was 0.897 µM and the TGI (COLO 205 colon) was 2.96 µM. The GI50 (HCC-2998 colon) was 0.446 µM, the TGI (HCC-2998 colon) was 2.42 µM and the GI50 (A549 NSCLC) was 0.67 µM. The TGI (A549 NSCLC) was > 28.7 µM, the TGI (SF-539 CNS) was 0.714 µM and 0.755 µM and the TGI (SW-620 colon) was 7.71 µM. It also gave a GI50 (EKVX NSCLC) of 0.349 µM, a GI50 (MALME-3M melanoma) of 0.633 µM and a TGI (MALME-3M melanoma) of 4.28 µM. For the same compound, the GI50 (SF-268 CNS) was 0.353 µM.
In the case of ClCc1ccc(Cn2cnc3nc(Cl)nc(Cl)c32)cc1, the GI50 (TK-10 renal) is reported as 0.43 µM, the TGI (TK-10 renal) is reported as 0.932 µM and the GI50 (BT-549 breast) is reported as 1.87 µM. The TGI (BT-549 breast) was 3.48 µM, the GI50 (COLO 205 colon) was 5.66 µM and the TGI (COLO 205 colon) was > 20.5 µM. For the same compound, the GI50 (HCC-2998 colon) was 1.62 µM, the TGI (HCC-2998 colon) was 3.18 µM and the GI50 (A549 NSCLC) was 1.91 µM. It also gave a TGI (A549 NSCLC) of 3.64 µM, a GI50 (SF-539 CNS) of 0.593 µM and a TGI (SF-539 CNS) of 1.14 µM. For the same compound, the GI50 (SW-620 colon) was 1.47 µM, the TGI (SW-620 colon) was 3.28 µM and the GI50 (EKVX NSCLC) was 0.704 µM. For the same compound, the TGI (EKVX NSCLC) was 1.88 µM, the GI50 (MALME-3M melanoma) was 1.6 µM and the TGI (MALME-3M melanoma) was 3.24 µM. The GI50 (SF-268 CNS) was 0.629 µM and the TGI (SF-268 CNS) was 1.43 µM.
CC(C)C12CCC3(CCC4C(C)(C(=O)O)CCCC4(C)C3C1)C(CN)C2 (stereo unspecified) was tested, and the TGI (TK-10 renal) was > 100 µM, the TGI (BT-549 breast) was 95.5 µM and the TGI (COLO 205 colon) was 33.2 µM. The TGI (HCC-2998 colon) was 36.2 µM, the TGI (A549 NSCLC) was > 100 µM and the TGI (SF-539 CNS) was 78.9 µM. The TGI (SW-620 colon) was > 100 µM, the TGI (EKVX NSCLC) was 62 µM and the TGI (MALME-3M melanoma) was > 100 µM. For the same compound, the TGI (SF-268 CNS) was > 100 µM.
Cc1cc2c(SCc3ccccc3Cl)nc(N)nc2nc1C was tested, and the TGI (TK-10 renal) was > 100 µM, the TGI (BT-549 breast) was > 100 µM and the TGI (COLO 205 colon) was > 100 µM. The TGI (HCC-2998 colon) was > 100 µM, the TGI (A549 NSCLC) was > 100 µM and the TGI (SF-539 CNS) was > 100 µM. For the same compound, the TGI (SW-620 colon) was > 100 µM, the TGI (EKVX NSCLC) was > 100 µM and the TGI (MALME-3M melanoma) was > 100 µM. The TGI (SF-268 CNS) was > 100 µM.
Cc1c(-c2ccc(N3CCc4cccc(C(=O)Nc5nc6ccccc6s5)c4C3)nc2C(=O)O)cnn1CC12CC3CC(CC(C3)C1)C2 showed a GI50 (TK-10 renal) of 2.99 µM, a TGI (TK-10 renal) of 13.5 µM and a GI50 (BT-549 breast) of 3.73 µM. For the same compound, the TGI (BT-549 breast) was 16.4 µM, the GI50 (COLO 205 colon) was 0.63 µM and the TGI (COLO 205 colon) was 10.9 µM. For the same compound, the GI50 (HCC-2998 colon) was < 0.0329 µM, the TGI (HCC-2998 colon) was 1.34 µM and the GI50 (A549 NSCLC) was 4.97 µM. It also gave a TGI (A549 NSCLC) of 25.3 µM, a GI50 (SF-539 CNS) of 6.51 µM and a TGI (SF-539 CNS) of 21.8 µM. It also gave a GI50 (SW-620 colon) of 8.54 µM, a TGI (SW-620 colon) of 37.1 µM and a GI50 (EKVX NSCLC) of 8.62 µM. For the same compound, the TGI (EKVX NSCLC) was 28.3 µM, the GI50 (MALME-3M melanoma) was 14.3 µM and the TGI (MALME-3M melanoma) was 33.7 µM. It also gave a GI50 (SF-268 CNS) of 8.05 µM and a TGI (SF-268 CNS) of 24.8 µM.
